Assays:
Type in all cases: binding, rabbit
As385 = experiment: Competitive indirect ELISA for detection of PQS (As385, coating antigen I-5); settings: for C.R. (Cross Reactivity): As385 (PQS) assay, relative to PQS
Experimental: (§1) The competitive assay was carried out in a 96 well Maxisorp flat-bottom plates, coated using 100 μL of a BSA conjugate solution in coating buffer pH=9.6. Then, plates were covered with adhesive plate sealer and incubated overnight at 4° C. The day after, plates were washed with PBST (4×300 μL) using the platewasher Biotek ELx405 HT. Sequentially, 50 μL of the corresponding sample solution, containing the analyte HHQ, PQS or HQNO (2 μM to 0.13 nM) or MH medium were added, followed by 50 μL addition of a fixed As dilution and left without agitation 30 min at RT. After another washing step, a 1/6000 dilution of goat AntiRabbit IgG-HRP in PBST was added and incubated 30 min at RT. After a final washing, 100 μL of a substrate solution was added and left 30 min at RT in the dark. Once the time was consumed, the enzymatic reaction was stopped by adding 50 μl of H2SO4 4M solution and the absorbances read at 450 nm. Absorbance data were plotted and analyzed using GraphPad software. The standard calibration curve was fitted to a four-parameter equation according to the following formula: […], where A is the maximum absorbance, B is the minimum absorbance, C is the concentration producing 50% of the maximal absorbance, and D is the slope at the inflection point of the sigmoid curve. Unless otherwise indicated, the data presented correspond to the average of at least two well replicates.
(§2) Regarding specificity studies, it was followed the experimental procedure for indirect competitive ELISA described above. It was assessed the avidity of As versus other quinolone effector molecules of the pqs system from P. aeruginosa. Each assay was run using HHQ, PQS and HQNO as analyte. Cross reactivity was calculated through the equation: […].

As389 = experiment: Competitive indirect ELISA for detection of HQNO (As389, coating antigen I-5); settings: for C.R. (Cross Reactivity): As389 (HQNO) assay, relative to HQNO
Experimental: as §1, §2

As382 = experiment: Competitive indirect ELISA for detection of HHQ (As382, coating antigen I-7); settings: for C.R. (Cross Reactivity): As382 (HHQ) assay, relative to HHQ
Experimental: as §1, §2

[1] = cross reactivity study, As385 (PQS) assay conditions
[2] = cross reactivity study, As389 (HQNO) assay conditions
[3] = cross reactivity study, As382 (HHQ) assay conditions

Row | Structure (SMILES) | C.R. (Cross Reactivity) (As385) [%] | IC50 (As385; [1]) [nM] | C.R. (Cross Reactivity) (As389) [%] | IC50 (As389; [2]) [nM] | C.R. (Cross Reactivity) (As382) [%] | IC50 (As382; MH diluted 1/5, As382 dil. 1/64000, I-7 0.156 μg/mL) [nM] | IC50 (As382; PBST, As382 dil. 1/32000, I-7 0.313 μg/mL) [nM] | IC50 (As382; [3]) [nM] | IC50 (As389; MH diluted 1/5, As389 dil. 1/16000, I-5 0.250 μg/mL) [nM] | IC50 (As389; PBS at pH = 6.5, As389 dil. 1, I-5 0.250 μg/mL) [nM] | IC50 (As385; MH diluted 1/10, As385 dil. 1/64000, I-5 0.039 μg/mL) [nM] | IC50 (As385; PBS + 0.01% Tween + 0.1 mM EDTA, As385 dil. 1/48000, I-5 0.039 μg/mL) [nM]
1 | CCCCCCCc1cc(=O)c2ccccc2[nH]1 [HHQ, 2-heptyl-4-quinolone] | 13.31 | 27.2 | 36.24 | 26.4 | 100.00 | 2.85 ± 0.296 | 4.59 ± 0.287 | 2.67 |  |  |  | 
2 | CCCCCCCc1cc(=O)c2ccccc2n1O [HQNO, 2-heptyl-4-quinolone N-oxide] | 1.53 | 236 | 100.00 | 9.55 | 3.11 |  |  | 86 | 2.71 ± 0.035 | 4.2 ± 0.858 |  | 
3 | CCCCCCCc1[nH]c2ccccc2c(=O)c1O [PQS, 2-heptyl-3-hydroxy-4-quinolone] | 100.00 | 3.62 | 5.41 | 177 | 7.16 |  |  | 37.3 |  |  | 6.05 ± 0.155 | 3.87 ± 0.529
